Experiment: mn = molality of the nth substance listed, in mol/kg
Details: 101.3 kPa, Liquid; for speed of sound: Frequency=2 MHz, Linear variable-path acoustic interferometer; for mass density: Pycnometric method

O=C(O)[C@]1(O)C[C@@H](O)[C@@H](O)[C@H](O)C1 + O
Details | mass density [kg/m3] | speed of sound [m/s]
278.15 K, m1 = 0.01 | 1000.73 | 1427.1
278.15 K, m1 = 0.0198 | 1001.5 | 1428.1
278.15 K, m1 = 0.0299 | 1002.27 | 1429.2
278.15 K, m1 = 0.0374 | 1002.84 | 1429.9
278.15 K, m1 = 0.0405 | 1003.09 | 1430.2
278.15 K, m1 = 0.0441 | 1003.35 | 1430.6
278.15 K, m1 = 0.0492 | 1003.74 | 1431
278.15 K, m1 = 0.0601 | 1004.55 | 1432.1
278.15 K, m1 = 0.0634 | 1004.82 | 1432.4
278.15 K, m1 = 0.072 | 1005.45 | 1433.3
278.15 K, m1 = 0.0815 | 1006.18 | 1434.3
278.15 K, m1 = 0.0892 | 1006.75 | 1435
278.15 K, m1 = 0.1001 | 1007.56 | 1436.1
288.15 K, m1 = 0.0096 | 999.82 | 1466.7
288.15 K, m1 = 0.0238 | 1000.89 | 1467.9
288.15 K, m1 = 0.0297 | 1001.32 | 1468.4
288.15 K, m1 = 0.0362 | 1001.8 | 1468.9
288.15 K, m1 = 0.0403 | 1002.1 | 1469.3
288.15 K, m1 = 0.0447 | 1002.43 | 1469.6
288.15 K, m1 = 0.0489 | 1002.74 | 1470
288.15 K, m1 = 0.0542 | 1003.11 | 1470.4
288.15 K, m1 = 0.061 | 1003.63 | 1471
288.15 K, m1 = 0.0683 | 1004.16 | 1471.6
288.15 K, m1 = 0.0795 | 1004.98 | 1472.5
288.15 K, m1 = 0.0869 | 1005.52 | 1473.1
288.15 K, m1 = 0.0992 | 1006.4 | 1474.2
298.15 K, m1 = 0.0096 | 997.74 | 1497.4
298.15 K, m1 = 0.0199 | 998.49 | 1498.3
298.15 K, m1 = 0.0254 | 998.89 | 1498.7
298.15 K, m1 = 0.0304 | 999.25 | 1499.1
298.15 K, m1 = 0.0385 | 999.83 | 1499.7
298.15 K, m1 = 0.0415 | 1000.05 | 1500
298.15 K, m1 = 0.0493 | 1000.6 | 1500.6
298.15 K, m1 = 0.0542 | 1000.95 | 1501
298.15 K, m1 = 0.061 | 1001.46 | 1501.5
298.15 K, m1 = 0.0716 | 1002.18 | 1502.4
298.15 K, m1 = 0.0786 | 1002.68 | 1502.9
298.15 K, m1 = 0.0869 | 1003.27 | 1503.6
298.15 K, m1 = 0.1007 | 1004.22 | 1504.7

Cl.N=C(N)N [guanidine hydrochloride] + O
Details | mass density [kg/m3] | speed of sound [m/s]
278.15 K, m1 = 0.0101 | 1000.29 | 1427
278.15 K, m1 = 0.0162 | 1000.5 | 1427.5
278.15 K, m1 = 0.0196 | 1000.61 | 1427.8
278.15 K, m1 = 0.0227 | 1000.7 | 1428
278.15 K, m1 = 0.0291 | 1000.91 | 1428.5
278.15 K, m1 = 0.039 | 1001.25 | 1429.3
278.15 K, m1 = 0.0501 | 1001.58 | 1430.3
278.15 K, m1 = 0.0586 | 1001.85 | 1431
278.15 K, m1 = 0.0619 | 1001.96 | 1431.2
278.15 K, m1 = 0.0685 | 1002.17 | 1431.8
278.15 K, m1 = 0.0807 | 1002.54 | 1432.8
278.15 K, m1 = 0.0882 | 1002.78 | 1433.4
278.15 K, m1 = 0.0981 | 1003.08 | 1434.2
288.15 K, m1 = 0.0102 | 999.41 | 1466.6
288.15 K, m1 = 0.0201 | 999.7 | 1467.3
288.15 K, m1 = 0.0267 | 999.9 | 1467.8
288.15 K, m1 = 0.0297 | 999.98 | 1468
288.15 K, m1 = 0.0387 | 1000.25 | 1468.6
288.15 K, m1 = 0.0437 | 1000.41 | 1469
288.15 K, m1 = 0.0502 | 1000.59 | 1469.4
288.15 K, m1 = 0.0598 | 1000.86 | 1470.1
288.15 K, m1 = 0.0634 | 1000.97 | 1470.4
288.15 K, m1 = 0.0697 | 1001.15 | 1470.8
288.15 K, m1 = 0.0798 | 1001.43 | 1471.5
288.15 K, m1 = 0.0926 | 1001.79 | 1472.4
288.15 K, m1 = 0.1009 | 1002.03 | 1473
298.15 K, m1 = 0.0101 | 997.34 | 1497.4
298.15 K, m1 = 0.0162 | 997.52 | 1497.8
298.15 K, m1 = 0.0196 | 997.61 | 1497.9
298.15 K, m1 = 0.0267 | 997.81 | 1498.4
298.15 K, m1 = 0.0299 | 997.9 | 1498.6
298.15 K, m1 = 0.0349 | 998.05 | 1498.9
298.15 K, m1 = 0.0401 | 998.17 | 1499.2
298.15 K, m1 = 0.0515 | 998.5 | 1499.9
298.15 K, m1 = 0.0586 | 998.7 | 1500.4
298.15 K, m1 = 0.0705 | 999.01 | 1501.2
298.15 K, m1 = 0.0807 | 999.29 | 1501.8
298.15 K, m1 = 0.0926 | 999.61 | 1502.5
298.15 K, m1 = 0.1009 | 999.84 | 1503

C=C[C@H]1CN2CC[C@H]1C[C@H]2[C@H](O)c1ccnc2ccc(OC)cc12.Cl [quinine hydrochloride] + O
Details | mass density [kg/m3] | speed of sound [m/s]
278.15 K, m1 = 0.0127 | 1001.09 | 1429.3
278.15 K, m1 = 0.0177 | 1001.51 | 1430.5
278.15 K, m1 = 0.0225 | 1001.92 | 1431.7
278.15 K, m1 = 0.0287 | 1002.46 | 1433.3
278.15 K, m1 = 0.0332 | 1002.86 | 1434.4
278.15 K, m1 = 0.0402 | 1003.44 | 1436.2
278.15 K, m1 = 0.048 | 1004.11 | 1438.1
278.15 K, m1 = 0.0603 | 1005.15 | 1441.1
278.15 K, m1 = 0.0653 | 1005.57 | 1442.4
278.15 K, m1 = 0.0698 | 1005.93 | 1443.5
278.15 K, m1 = 0.0798 | 1006.76 | 1446
278.15 K, m1 = 0.09 | 1007.59 | 1448.5
278.15 K, m1 = 0.0987 | 1008.29 | 1450.7
288.15 K, m1 = 0.0106 | 1000.01 | 1468.3
288.15 K, m1 = 0.0163 | 1000.5 | 1469.6
288.15 K, m1 = 0.022 | 1000.99 | 1470.9
288.15 K, m1 = 0.0294 | 1001.64 | 1472.5
288.15 K, m1 = 0.0361 | 1002.19 | 1474
288.15 K, m1 = 0.0396 | 1002.48 | 1474.8
288.15 K, m1 = 0.0491 | 1003.28 | 1477
288.15 K, m1 = 0.0552 | 1003.79 | 1478.3
288.15 K, m1 = 0.0598 | 1004.17 | 1479.3
288.15 K, m1 = 0.0687 | 1004.9 | 1481.4
288.15 K, m1 = 0.0785 | 1005.7 | 1483.6
288.15 K, m1 = 0.0881 | 1006.49 | 1485.7
288.15 K, m1 = 0.1019 | 1007.59 | 1488.8
298.15 K, m1 = 0.0109 | 997.96 | 1499.2
298.15 K, m1 = 0.0125 | 998.1 | 1499.4
298.15 K, m1 = 0.0199 | 998.7 | 1501.1
298.15 K, m1 = 0.0248 | 999.09 | 1502.2
298.15 K, m1 = 0.0286 | 999.45 | 1502.9
298.15 K, m1 = 0.0378 | 1000.17 | 1504.9
298.15 K, m1 = 0.0473 | 1000.94 | 1506.9
298.15 K, m1 = 0.0544 | 1001.52 | 1508.5
298.15 K, m1 = 0.0594 | 1001.93 | 1509.4
298.15 K, m1 = 0.0677 | 1002.6 | 1511.4
298.15 K, m1 = 0.0785 | 1003.46 | 1513.7
298.15 K, m1 = 0.0881 | 1004.22 | 1515.8
298.15 K, m1 = 0.0987 | 1005.05 | 1518.1

O [water] + C=C[C@H]1CN2CC[C@H]1C[C@H]2[C@H](O)c1ccnc2ccc(OC)cc12.Cl
278.15 K, m2 = 0
Details | mass density [kg/m3] | speed of sound [m/s]
– | 999.96 | 1426.2

O [water] + Cl.N=C(N)N
278.15 K, m2 = 0
Details | mass density [kg/m3] | speed of sound [m/s]
– | 999.96 | 1426.2

O [water] + O=C(O)[C@]1(O)C[C@@H](O)[C@@H](O)[C@H](O)C1
278.15 K, m2 = 0
Details | mass density [kg/m3] | speed of sound [m/s]
– | 999.96 | 1426.2

— the NIST ThermoML archive (doi:10.1016/j.jct.2014.09.011)
